According to BindingDB's records for patent US9394289 (Janssen Pharmaceutica, 2016):

Biological target: Macrophage colony-stimulating factor 1 receptor (Homo sapiens, UniProt P07333)
Assay: Fluorescence Polarization Competition Immunoassay
Details: pH 7.5; 25 °C
Procedure: The assay buffer used was 100 mM 4-(2-hydroxyethyl)piperazine 1-ethanesulfonic acid (HEPES), pH 7.5, 1 mM 1,4-dithio-DL-threitol (DTT), 0.01% (v/v) Tween-20. Compounds were diluted in assay buffer containing 4% dimethylsulfoxide (DMSO) just prior to the assay. To each well, 5 μL of compound were added followed by the addition of 3 μL of a mix containing 33 nM c-fms (Johnson & Johnson PRD) and 16.7 mM MgCl2 (Sigma) in assay buffer. The kinase reaction was initiated by adding 2 μL of 5 mM ATP (Sigma) in assay buffer. The final concentrations in the assay were 10 nM c-fms, 1 mM ATP, 5 mM MgCl2, 2% DMSO. Control reactions were ran in each plate: in positive and negative control wells, assay buffer (made 4% in DMSO) was substituted for the compound; in addition, positive control wells received 1.2 μL of 50 mM ethylenediaminetetraaceticacid (EDTA). The plates were incubated at room temperature for 45 min. At the end of the incubation, the reaction was quenched with 1.2 μL of 50 mM EDTA (EDTA was not added to the positive control wells at this point; see above). Following a 5-min incubation, each well received 10 μL of a 1:1:3 mixture of anti-phosphotyrosine antibody, 10×, PTK green tracer, 10× (vortexed), FP dilution buffer, respectively (all from PanVera, cat. #P2837). The plate was covered, incubated for 30 min at room temperature and the fluorescence polarization was read on the Analyst. […]

Macrophage colony-stimulating factor 1 receptor, sequence (P07333 whole entry): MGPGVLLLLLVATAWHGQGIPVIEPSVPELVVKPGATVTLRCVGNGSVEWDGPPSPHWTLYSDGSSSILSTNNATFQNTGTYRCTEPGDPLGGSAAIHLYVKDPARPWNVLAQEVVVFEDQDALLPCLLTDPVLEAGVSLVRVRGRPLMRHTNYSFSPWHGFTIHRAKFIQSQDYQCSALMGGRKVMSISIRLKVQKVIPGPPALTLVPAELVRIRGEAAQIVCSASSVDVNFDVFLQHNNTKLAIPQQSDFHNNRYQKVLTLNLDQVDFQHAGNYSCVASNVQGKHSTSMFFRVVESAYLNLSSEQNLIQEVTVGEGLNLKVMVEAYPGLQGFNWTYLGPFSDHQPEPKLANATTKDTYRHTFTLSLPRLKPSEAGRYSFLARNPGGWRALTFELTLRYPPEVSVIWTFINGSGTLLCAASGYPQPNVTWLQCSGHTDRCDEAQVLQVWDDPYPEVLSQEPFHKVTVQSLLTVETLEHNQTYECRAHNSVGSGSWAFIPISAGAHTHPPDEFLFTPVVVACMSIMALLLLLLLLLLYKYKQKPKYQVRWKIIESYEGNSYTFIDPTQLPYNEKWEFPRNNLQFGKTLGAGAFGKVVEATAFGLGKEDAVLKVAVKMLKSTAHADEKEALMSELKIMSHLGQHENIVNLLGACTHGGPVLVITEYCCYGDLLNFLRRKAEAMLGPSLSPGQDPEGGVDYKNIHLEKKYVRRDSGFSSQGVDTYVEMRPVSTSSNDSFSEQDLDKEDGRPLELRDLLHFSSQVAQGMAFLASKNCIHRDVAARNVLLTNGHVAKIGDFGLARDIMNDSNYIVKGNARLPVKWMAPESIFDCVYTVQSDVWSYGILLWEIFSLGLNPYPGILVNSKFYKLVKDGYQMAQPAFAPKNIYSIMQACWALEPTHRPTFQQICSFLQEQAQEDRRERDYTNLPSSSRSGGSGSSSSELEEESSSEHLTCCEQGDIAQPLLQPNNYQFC

- IC50: 2.9 nM
Structure (SMILES): N#Cc1c[nH]c(C(=O)Nc2ccc(C3(O)CCS(=O)(=O)CC3)cc2C2=CCCCC2)n1 [US9394289, 15]
